The record followed here is ChEMBL document CHEMBL1201862, “PubChem BioAssay data set” (2004).

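Five concentrations, 48 hours, 96-well plates. Abbreviation: GI50, concentration required for 50% inhibition of growth.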 Activity calls are given as the source filed them. Cut-off read from the data, not from the text of the source: active = GI50 up to about 1.1 µM and inactive = higher.

What all share (test): NCI tumour cell line growth inhibition, 48 h
In experiment [1] the test system is NCI-H460.
For experiment [2], the system named is BT-549.
The subject of experiment [3] is HCT-116.
In experiment [4] the test system is MDA-N.
Experiment [5] relates to Malme-3M.
Experiment [6] relates to MCF7.
The subject of experiment [7] is NCI-H23.
Experiment [8] relates to MDA-MB-231.
For experiment [9], the system named is U-251.
Experiment [10] has as its system HCC 2998.
Experiment [11] deals with SW-620.
Experiment [12] relates to IGROV-1.
Experiment [13] has as its system SK-MEL-28.
Experiment [14] deals with SN12C.
Experiment [15] has as its system SK-OV-3.
The test system of experiment [16] is LOX IMVI.
For experiment [17], the system named is SF-539.
Experiment [18] has as its system OVCAR-8.
Experiment [19] has as its system HT-29.
The subject of experiment [20] is A549.

`NCc1ccccc1.O=C(O)NCc1ccccc1`: the GI50 in [1] is 26.5 µM (inactive); in [2] it was 29.5 µM (inactive); in experiment [3], 25.1 µM (inactive); in [4], 29.5 µM (inactive); in experiment [5] it was 27.4 µM (inactive); in experiment [6], 34.8 µM (inactive). Further, the GI50 was 27.5 µM (inactive) in experiment [7]; 10.3 µM (inactive) in experiment [8]; 26.9 µM (inactive) in experiment [9]; 22.5 µM (inactive) in experiment [10]; 34.8 µM (inactive) in [11]; 26.1 µM (inactive) in experiment [12]. Besides, the GI50 was 38.2 µM (inactive) in experiment [13]; 31.8 µM (inactive) in experiment [14]; 37.5 µM (inactive) in [15]; 30.3 µM (inactive) in [16]; 41.1 µM (inactive) in experiment [17]; 37.1 µM (inactive) in [18]. Also, the GI50 is 27.7 µM (inactive) in [19] and 34.9 µM (inactive) in [20].
As for `Cc1ccc(CC(=O)Nc2ccc(NC(=O)CNC(=O)/C=C/c3ccc(-c4ccccc4)cc3)cc2C(=O)c2ccccc2)cc1`, the GI50 in experiment [1] was 2.86 µM (inactive); in experiment [2] it was 10.9 µM (inactive); in experiment [3] it was 1.36 µM (inactive); in experiment [4], 4.74 µM (inactive); in experiment [5], 2.99 µM (inactive); in [6], 1.82 µM (inactive). Moreover, the GI50 was 2.06 µM (inactive) in experiment [7]; 2.62 µM (inactive) in experiment [8]; 2.77 µM (inactive) in experiment [9]; 1.67 µM (inactive) in [10]; 4.75 µM (inactive) in [11]; 8.24 µM (inactive) in experiment [12]. Also, the GI50 in experiment [13] was 11.7 µM (inactive); in experiment [14] it was 2.74 µM (inactive); in experiment [15] it was 10.7 µM (inactive); in experiment [16], 3.69 µM (inactive); in [17] it was 2.7 µM (inactive); in experiment [18], 1.59 µM (inactive). Also, the GI50 in experiment [19] is 1.58 µM (inactive); in experiment [20], 2.03 µM (inactive).
Consider `O=C1OC2C(O)COC2(O)C1(O)C(C[N+](=O)[O-])c1ccc(Cl)cc1` (stereo not given), for which the GI50 in [1] is 13.7 µM (inactive); in experiment [2], 6.75 µM (inactive); in [3], 1.79 µM (inactive); in experiment [4], 2.76 µM (inactive); in experiment [5] it was 16.3 µM (inactive); in experiment [6] it was 1.98 µM (inactive). In addition, the GI50 was 6.95 µM (inactive) in experiment [7]; 30.2 µM (inactive) in experiment [8]; 9.29 µM (inactive) in experiment [9]; 6.78 µM (inactive) in experiment [10]; 2.71 µM (inactive) in [11]; 9.38 µM (inactive) in experiment [12]. In addition, the GI50 in [13] is 3.52 µM (inactive); in experiment [14], 13.7 µM (inactive); in experiment [15], 17.1 µM (inactive); in [16], 2.69 µM (inactive); in experiment [17] it was 3.97 µM (inactive); in [18] it was 10.1 µM (inactive). Further, the GI50 in experiment [19] was 1.99 µM (inactive); in experiment [20], 16.5 µM (inactive).
On to `Nc1nc(Cl)cc(NCC2(CO)CC(CCCCc3ccccc3)C2)n1` (stereo not given), for which the GI50 is 40.8 µM (inactive) in experiment [1]; > 100 µM (inactive) in [2]; 29 µM (inactive) in experiment [3]; 89.1 µM (inactive) in experiment [4]; 16.3 µM (inactive) in experiment [5]; 7.55 µM (inactive) in experiment [6]. Besides, the GI50 in experiment [7] was 21.8 µM (inactive); in experiment [8], 30.6 µM (inactive); in experiment [9] it was > 100 µM (inactive); in [10], 37.7 µM (inactive); in experiment [11], 78.7 µM (inactive); in experiment [12], > 100 µM (inactive). Also, the GI50 in experiment [13] was > 100 µM (inactive); in experiment [14], > 100 µM (inactive); in experiment [15], > 100 µM (inactive); in experiment [16], 5.73 µM (inactive); in experiment [17] it was > 100 µM (inactive); in experiment [18], 27.2 µM (inactive). In addition, the values for the GI50 in experiment [19] and in experiment [20] were 13.7 µM (inactive) and 16.1 µM (inactive), respectively.
In the case of `CCOC(=O)c1cccc([N+](=O)[O-])c1N`, the GI50 in experiment [1] was > 100 µM (inactive); in experiment [2], > 100 µM (inactive); in experiment [3] it was > 100 µM (inactive); in experiment [4] it was > 100 µM (inactive); in experiment [5], 19.1 µM (inactive); in [6], > 100 µM (inactive). For the same compound, the GI50 in experiment [7], in experiment [8], in experiment [9], in experiment [10], in experiment [11] and in experiment [12] was > 100 µM (inactive) in each case. Moreover, the GI50 in experiment [13], in experiment [14], in [15], in experiment [16], in [17] and in [18] was > 100 µM (inactive) in each case. Further, the GI50 in [19] and in [20] was > 100 µM (inactive) throughout.
Regarding `O=C(C1OC1c1cccc([N+](=O)[O-])c1)C12CC3CC(CC(C3)C1)C2` (stereo not given), the GI50 in experiment [1] is 4.06 µM (inactive); in experiment [2] it was 3.09 µM (inactive); in experiment [3], 2.14 µM (inactive); in [4] it was 3.19 µM (inactive); in experiment [5], 13.7 µM (inactive); in [6], 2.86 µM (inactive). For the same compound, the GI50 is 5.74 µM (inactive) in [7]; 4.83 µM (inactive) in experiment [8]; 2.88 µM (inactive) in [9]; 6.73 µM (inactive) in experiment [10]; 2.97 µM (inactive) in experiment [11]; 6.53 µM (inactive) in experiment [12]. For the same compound, the GI50 in [13] was 12.3 µM (inactive); in [14], 4.2 µM (inactive); in experiment [15] it was 16.9 µM (inactive); in experiment [16], 1.72 µM (inactive); in experiment [17] it was 8.79 µM (inactive); in [18], 2.25 µM (inactive). In addition, the GI50 in experiment [19] was 3.39 µM (inactive); in experiment [20], 12.9 µM (inactive).
For the compound `CCOC(=O)NC(Nc1ccc([N+](=O)[O-])cc1)(C(F)(F)F)C(F)(F)F`, the GI50 in experiment [1] is 40.9 µM (inactive); in experiment [2], 96.2 µM (inactive); in experiment [3], 59.8 µM (inactive); in experiment [4] it was 22 µM (inactive); in experiment [5], > 100 µM (inactive); in experiment [6], 60.7 µM (inactive). Further, the GI50 in experiment [7] is > 100 µM (inactive); in [8], 94.2 µM (inactive); in [9], 85.9 µM (inactive); in experiment [10], > 100 µM (inactive); in experiment [11], > 100 µM (inactive); in [12], 70.5 µM (inactive). The GI50 in experiment [13] is > 100 µM (inactive); in experiment [14], > 100 µM (inactive); in experiment [15] it was 56.5 µM (inactive); in experiment [16], 75.3 µM (inactive); in experiment [17], > 100 µM (inactive); in [18], > 100 µM (inactive). Moreover, the GI50 in experiment [19] was > 100 µM (inactive); in experiment [20] it was 45 µM (inactive).
In the case of `Oc1cc(Br)cc2cc(Cl)cnc12`, the GI50 in [1] was 1.09 µM (active); in experiment [2], 2.44 µM (inactive); in experiment [3], 1.66 µM (inactive); in experiment [4], 3.45 µM (inactive); in [5], 2.52 µM (inactive); in experiment [6], 3.33 µM (inactive). Further, the GI50 in experiment [7] was 5.47 µM (inactive); in experiment [8], 20.8 µM (inactive); in [9], 1.56 µM (inactive); in experiment [10], 17.8 µM (inactive); in experiment [11] it was 2.83 µM (inactive); in experiment [12], 1.26 µM (inactive). Further, the GI50 was 3.29 µM (inactive) in [13]; 3.13 µM (inactive) in experiment [14]; 30.2 µM (inactive) in experiment [15]; 0.635 µM (active) in [16]; 3.19 µM (inactive) in experiment [17]; 2.45 µM (inactive) in experiment [18]. In addition, the GI50 in [19] is 11 µM (inactive); in [20], 2.06 µM (inactive).
Turning to `CCOC(=O)Nc1cc2c(c(N)n1)N=C(c1ccccc1)CN2`, the GI50 in experiment [1] is < 0.01 µM (active); in experiment [2], < 0.01 µM (active); in experiment [3] it was < 0.01 µM (active); in experiment [4], < 0.01 µM (active); in experiment [5], 16.4 µM (inactive); in [6], 0.0317 µM (active). Further, the GI50 in experiment [7], in [8], in experiment [9], in [10], in experiment [11] and in experiment [12] was < 0.01 µM (active) in each case. Moreover, the GI50 in experiment [13] is 14.5 µM (inactive); in experiment [14] it was < 0.01 µM (active); in [15] it was 0.0527 µM (active); in experiment [16], < 0.01 µM (active); in [17] it was < 0.01 µM (active); in experiment [18] it was < 0.01 µM (active). Moreover, the GI50 in experiment [19] and in experiment [20] was < 0.01 µM (active) each time.
`O=C(CCc1ccc(O)c(O)c1)c1ccc(O)c(O)c1O`: the GI50 in experiment [1] was 13 µM (inactive); in [2], > 10 µM (inactive); in experiment [3], 37.3 µM (inactive); in [4], 15.3 µM (inactive); in [5], 28.4 µM (inactive); in experiment [6] it was 19.1 µM (inactive). For the same compound, the GI50 was 21.4 µM (inactive) in experiment [7]; 20.3 µM (inactive) in experiment [8]; 14.8 µM (inactive) in experiment [9]; 49.8 µM (inactive) in [10]; 27.4 µM (inactive) in [11]; 25.1 µM (inactive) in experiment [12]. In addition, the GI50 in experiment [13] is 60.7 µM (inactive); in [14], 15.3 µM (inactive); in [15] it was 52.2 µM (inactive); in experiment [16], 27.7 µM (inactive); in experiment [17] it was 15.5 µM (inactive); in experiment [18], 22.9 µM (inactive). In addition, the GI50 in experiment [19] was 26.7 µM (inactive); in experiment [20] it was 34.2 µM (inactive).
